Reference: publication PMC12544700, “Identification of a Small Secretoneurin Derivative That Inhibits CaMKIIδ Activity” (Journal of Cellular and Molecular Medicine, 2025)
Peptide text beside a SMILES is read from it. * marks the point of attachment. Biotin = O=C1N[C@H]2[C@H](CS[C@H]2CCCCC(=O)*)N1; Ahx = NCCCCCC(=O)O

Experiments:
recombinant CaM = molecular target: T1, recombinant CaM (Homo sapiens, UniProt P0DP23); assay: Calmodulin pull-down with peptides synthesised on cellulose membrane; type: binding; details: peptide on cellulose membrane; 1 μg recombinant CaM, 1 mM CaCl2, overnight 4°C; immunoblot; Figure 3B
T1 construct: purchased Sigma Merck C4874
Description: To test for calmodulin (CaM) binding, recombinant CaM was pulled down after incubation with SN‐db‐short or a peptide representing the CaM binding site in CaMKII ([…], positive control). SN‐db‐short and the CaM‐binding peptide were synthesised in triplicates onto a cellulose membrane by a Multipep automated peptide synthesiser (CEM Corporation, Matthews, NC, USA). The specific spots of the membrane corresponding to SN‐db‐short or the positive control peptide were cut and placed into separate tubes. The membrane pieces were first rehydrated in 100% methanol and subsequently incubated with 1 μg of recombinant CaM (C4874, Sigma Merck) in CaMKII binding buffer supplemented with CaCl2 (50 mM Hepes, 150 mM NaCl, 15 mM MgCl2, 1 mM CaCl2, 0.1% Triton X‐100, 1% BSA) overnight at 4°C with rotation. […]
(§1) Lysates and immunoprecipitates were separated on 12% or 4%–15% Criterion TGX precast gels (5671044 and 5671084, Biorad, Hercules, CA, USA), blotted onto PVDF membranes (1704157 by Biorad or 03010040001 by Sigma Merck) and reversibly stained with Revert 700 Total Protein Stain (Li‐COR Biosciences, Lincoln, NE, USA). […] Blots were developed using ECL (RPN2236, GE Healthcare, Chicago, IL, USA) after four washing steps of 10 min in TBS‐t and the chemiluminescence signals were detected by Azure Biosystems 600 (Dublin, CA, USA). […] ImageJ [13] was used to quantify the blots.

human His‐CaMKIIδ‐T287D [1] = molecular target: T2, human His‐CaMKIIδ‐T287D (Homo sapiens, UniProt Q13557, T287D); assay: CaMKII pull-down with biotinylated peptides on streptavidin beads; type: binding; details: biotin‐SN‐db‐short vs biotin‐SN; immunoblot; Figure S2A, n = 8
T2 construct: Recombinant human His‐CaMKIIδ‐T287D and rat His‐CaMKIIδ‐T287D full‐length proteins; His; purchased Genscript Corp (custom made)
T2 sequence (Q13557 whole entry T287D): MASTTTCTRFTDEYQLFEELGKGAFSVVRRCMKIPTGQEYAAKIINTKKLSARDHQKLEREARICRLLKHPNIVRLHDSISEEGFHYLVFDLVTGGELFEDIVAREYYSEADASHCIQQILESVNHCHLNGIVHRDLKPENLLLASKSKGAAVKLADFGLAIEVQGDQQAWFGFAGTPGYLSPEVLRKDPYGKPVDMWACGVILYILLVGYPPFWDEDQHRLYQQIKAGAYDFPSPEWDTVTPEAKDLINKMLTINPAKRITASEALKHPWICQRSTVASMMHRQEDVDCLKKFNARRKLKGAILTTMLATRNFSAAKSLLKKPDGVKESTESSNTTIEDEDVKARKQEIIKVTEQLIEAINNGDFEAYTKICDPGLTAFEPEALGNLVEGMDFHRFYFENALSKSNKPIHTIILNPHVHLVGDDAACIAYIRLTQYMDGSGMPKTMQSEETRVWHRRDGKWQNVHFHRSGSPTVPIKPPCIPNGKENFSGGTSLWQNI
Description: In the CaMKII pull‐down assay, the biotinylated peptides (20 μL) were coupled to 50 μL of streptavidin magnetic beads (88816, Thermo Fisher) in PBS for 2 h at 4°C with rotation. The bead‐bound peptides were thereafter incubated with 1 μg of human His‐CaMKIIδ‐T287D in 300 μL of PBS or PBS with 1% BSA for 2 h at 4°C with rotation. The protein complexes attached to the beads were then washed three times in 300 μL of IP buffer (20 mM Hepes, pH 7.5, 150 mM NaCl, 1 mM EDTA, 1% Triton X‐100, supplemented with complete protease inhibitor cocktail and phosphatase inhibitor cocktail) or PBS. Samples were boiled in SDS loading buffer at 95°C for 5 min before western blot analysis.
as §1, with “blots. […]” for “blots.”

human His‐CaMKIIδ‐T287D [2] = molecular target: T2, human His‐CaMKIIδ‐T287D; assay: ELISA-based binding to human His‐CaMKIIδ‐T287D; details: biotin‐ahx‐SN‐db‐short; values relative to biotin‐ahx‐Scram; Figure S2B, n = 6
Description: A 96‐well microplate was coated with 1 μg/well of rat or human recombinant His‐CaMKIIδ‐T287D or CaMKIIδ fragments (custom made by Genscript) in 1× PBS overnight at 4°C with gentle tilting. Wells were washed with 1× PBS‐t (0.1% Tween‐20) and blocked with 0.5% gelatin (G‐1890 Gelatin type A, Sigma Merck, Darmstadt, Germany) or BSA (805095 30% BSA (Rinderalbumin 30%), Norsk Labex, Høvik, Norway) for 1 h at room temperature (RT), then incubated with 5 μL of biotinylated peptide (1 mM) for 2 h at 37°C with gentle tilting. The wells were then washed five times with 1× PBS‐t. To detect binding, the wells were incubated with a monoclonal anti‐biotin‐HRP conjugated antibody (1:5000 dilution, A‐0185, Sigma) for 30 min at RT. The washing steps were repeated, and the plate was incubated with the Ultra TMB solution (1‐step Ultra TMB‐ELISA Substrate Solution 34028, Thermo Fischer Scientific, Waltham, MA, USA) for 30 min at RT with gentle tilting. The reaction was stopped by adding 2 N HCl (100 μL), and the signal was measured at 450 nm by a plate reader (Hidex Sense Microplate Reader, Åbo, Finland). For the competition assay, 20 μL (1 mM) of T‐site binding peptides AKAP18δ‐N1, CN21 or CN27 (without any biotin tags) were incubated in the same well with 5 μL (1 mM) of SN biotinylated peptides. […]

CaM binding (pull-down) (recombinant CaM): no CaM was detected | Binding to recombinant human CaMKIIδ‐T287D vs. native SN (pull down) (human His‐CaMKIIδ‐T287D [1]): increased binding | Binding to recombinant human CaMKIIδ‐T287D (ELISA) (human His‐CaMKIIδ‐T287D [2]): increased binding
SMILES: CC(C)C[C@H](NC(=O)[C@H](CCC(=O)O)NC(=O)[C@H](CCC(N)=O)NC(=O)[C@H](Cc1ccccc1)NC(=O)[C@H](Cc1ccccc1)NC(=O)[C@H](CO)NC(=O)[C@H](CCC(=O)O)NC(=O)[C@H](Cc1ccccc1)NC(=O)[C@@H](NC(=O)[C@H](C)NC(=O)[C@H](CC(C)C)NC(=O)[C@H](CO)NC(=O)[C@H](CCC(N)=O)NC(=O)[C@@H]1CCCN1C(=O)[C@@H](NC(=O)[C@H](Cc1ccc(O)cc1)NC(=O)[C@H](CCC(N)=O)NC(=O)[C@H](CCC(=O)O)NC(=O)CCCCCNC(=O)CCCC[C@@H]1SC[C@@H]2NC(=O)N[C@@H]21)[C@@H](C)O)[C@@H](C)O)C(=O)NCC(=O)N[C@@H](CCCCN)C(=O)O [SN‐db‐short] ({Biotin-Ahx}-EQYTPQSLATFESFFQELGK-OH; N-terminus and C-terminus assumed)
